Legend:
[1] = molecular target: human serum albumin (HSA) (Homo sapiens, UniProt P02768); assay: biochemical
Procedure: 5. Immobilization of Human Serum Albumin (HSA) on Fluorescence-Active Supports (FI-HSA)
For the immobilization of HSA, 100 mg of HSA dissolved in 10 ml of phosphate buffer (20 mM, pH 7.4) are added to 1 g of a support prepared according to 2. and rotated overhead for at least four hours. To remove free protein, this is washed with phosphate buffer, 1M NaCl in phosphate buffer and finally with PBS. The quantification of the protein immobilization is effected by supernatant analysis. The suspension is adjusted to a desired protein concentration in PBS and stored.
For the determination of the albumin binding, 200 mg of the FI-HSA support prepared in 5. were made up to a total volume of 1 ml with PBS, and similarly 200 mg of an FI-Ref prepared according to 3. were made up to 1 ml with PBS.
For the determination of the concentration-dependent quantities, the following volumes were pipetted into the wells of a 384 well UV plate (Greiner UV-plate): […]
whereby the final concentration of carbamazepine in the wells is 70 μM. […] For the determination of the concentration-dependent quantity cpre-binding, excitation spectra of the wells reference 1 and substance 1 are recorded in the “top-read” mode between 250 and 480 nm with an emission wavelength of 530 nm, and calculated from cpre-binding=log F0v(λ)/Fv(λ), where F0v(λ) and Fv(λ) are the excitation spectra of the wells reference 1 and substance 1. […]

[2] = Determination of the membrane affinity of warfarin in the 96-well format (FI-EiPC support, internal filter effect); format: physicochemical; conditions: triple determination, 70 μM warfarin, FI-EiPC support in PBS
Procedure: 4. Reconstitution of Lipid Membranes on Fluorescence-Active Supports (FI-EiPC)
For the reconstitution of lipid membranes, firstly 1 g of a support prepared according to 2. is treated with a solution of 25 mg of sodium polystyrenesulfonate in 25 ml of water in the overhead rotator and then washed three times each with water and PBS.
60 ml of a vesicle solution of 5 mg/ml EiPC (lipid extract from egg yolk) in PBS (prepared by homogenization in the Avestin Co EmulsiFlex-C5 homogenizer) are added to this support and incubated overnight. To remove excess lipid, this is washed three times with PBS and the support is then stored in PBS. The determination of the lipid concentration is effected by drying of defined volumes of suspension, detachment of the lipid from the solid body using an organic solvent, and then HPLC analysis.
Well reference 1: 100 μl FI-Ref suspension+200 μl PBS
Well substance 1: 100 μl FI-Ref suspension+170 μl PBS+30 μl warfarin solution;
Well reference 1′: 100 μl FI-EiPC suspension+200 μl PBS
Well substance 1′: 100 μl FI-EiPC suspension+170 μl PBS+30 μl warfarin solution; whereby the final concentration of warfarin in the wells is 70 μM. […]

Chain of human serum albumin (HSA) (P02768 25-609): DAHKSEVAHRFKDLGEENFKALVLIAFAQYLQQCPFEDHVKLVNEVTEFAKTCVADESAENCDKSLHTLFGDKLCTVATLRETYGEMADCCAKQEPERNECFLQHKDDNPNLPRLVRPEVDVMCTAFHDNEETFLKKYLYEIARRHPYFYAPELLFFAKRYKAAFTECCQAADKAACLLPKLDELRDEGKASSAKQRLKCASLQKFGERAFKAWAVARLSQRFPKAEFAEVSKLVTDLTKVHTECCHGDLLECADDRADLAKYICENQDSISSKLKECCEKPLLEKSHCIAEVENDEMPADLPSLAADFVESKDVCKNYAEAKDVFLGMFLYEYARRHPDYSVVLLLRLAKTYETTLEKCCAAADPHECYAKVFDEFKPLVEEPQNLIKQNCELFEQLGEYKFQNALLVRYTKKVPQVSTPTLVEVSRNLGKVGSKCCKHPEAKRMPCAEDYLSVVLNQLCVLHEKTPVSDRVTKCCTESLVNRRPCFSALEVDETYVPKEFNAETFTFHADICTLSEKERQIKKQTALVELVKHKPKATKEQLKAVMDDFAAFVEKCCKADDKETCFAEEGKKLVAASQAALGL

`NC(=O)N1c2ccccc2C=Cc2ccccc21` [carbamazepine] showed a Kd [1] of 170 µM.

`CC(=O)CC(c1ccccc1)c1c(O)c2ccccc2oc1=O` (centres unmarked) [warfarin] gave a membrane affinity [2] of 1.7±0.3.

From patent publication US20080003590A1, “Termination of Binding Parameters” (priority 2004, published 2008)
